Test system: endogenous calnexin S-acylation in HEK293T cells
Assay: mPEG-click S-acylation of endogenous calnexin in HEK293T cells
Assay type: cell-based, human
Conditions: 25 and 50 μM, 4 h pretreatment + 4 h labeling
From the text: Finally, we tested whether TTZ-1 and TTZ-2 were able to block the S-acylation of endogenous proteins in the absence of zDHHC enzyme overexpression. In order to detect the S-acylation of endogenous proteins, we used mPEG-click, a technique that we developed recently ([49]) that is better suited for the click chemistry–based analysis of S-acylation of endogenously expressed proteins. In this assay, cells are labeled with either palmitate (C16:0), or C16:0-azide, lysed, and then subjected to click chemistry with alkyne-mPEG 5K. The addition of mPEG 5K moieties to S-acylated proteins increases their apparent molecular weight, which can be detected directly by immunoblotting. HEK293T cells were pretreated for 4 h with either TTZ-1 or TTZ-2 at 25 and 50 μM and then labeled with fatty acids for another 4 h in the presence of the compounds. We first assessed the S-acylation of endogenous SNAP23 as it is a close relative of SNAP25 (SNAP25 is not expressed in the non-neuronal HEK293T cell line) ([50], [51]). […]
Figure 10 Activity of TTZ-1 and TTZ-2 against the S-acylation of endogenous proteins in mammalian cells. […] The data were quantified, and the graphs below each set of membranes show mean ± SEM of normalized S-acylation of either endogenous SNAP23 (A) or endogenous calnexin (B). […]

O=C(Nc1cccc2c1OC(c1nnn[nH]1)CN2)c1ccc(OCCCCc2ccccc2)cc1 (centres unmarked) [TTZ-2, N-(2-(1H-Tetrazol-5-yl)-3,4-dihydro-2H-benzo[b][1,4]oxazin-8-yl)-4-(4-phenylbutoxy)benzamide] was tested, and the “S-acylation of endogenous calnexin” value was “decreased”.

CCCCCCCOc1ccc(C(=O)Nc2cccc3c2OC(c2nnn[nH]2)CN3)cc1 (centres unmarked) [TTZ-1, N-(2-(1H-Tetrazol-5-yl)-3,4-dihydro-2H-benzo[b][1,4]oxazin-8-yl)-4-(heptyloxy)benzamide] was tested, and the “S-acylation of endogenous calnexin” value was “decreased”.

— paper PMC9558053, “Development of a novel high-throughput screen for the identification of new inhibitors of protein S-acylation” (The Journal of Biological Chemistry, 2022)
